These results are taken from patent US6514989B1, “Aromatic and heteroaromatic substituted 1,2,4-triazolo pyridine derivatives” (Hoffmann-La Roche Inc., priority 2001, dated 2003).

For experiment [1], the target named is T1, human adenosine A1 receptor (Homo sapiens, UniProt P30542).
T1 construct: expressed in transfected cells; host or cells: CHO cells, semliki forest virus expression system; membrane preparation
T1 sequence (P30542 1-326): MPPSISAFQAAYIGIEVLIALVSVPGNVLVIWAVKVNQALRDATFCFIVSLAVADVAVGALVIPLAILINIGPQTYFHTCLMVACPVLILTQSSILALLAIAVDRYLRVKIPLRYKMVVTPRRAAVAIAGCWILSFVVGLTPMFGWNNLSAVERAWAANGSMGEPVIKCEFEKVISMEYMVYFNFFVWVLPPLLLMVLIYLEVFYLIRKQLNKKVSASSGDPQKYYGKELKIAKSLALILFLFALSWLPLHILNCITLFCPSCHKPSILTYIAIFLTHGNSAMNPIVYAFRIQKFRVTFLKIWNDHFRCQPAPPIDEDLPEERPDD
As to the kind of experiment: Human adenosine A1 receptor radioligand binding assay ([3H]-DPCPX, SPA, CHO cell membranes). To be noted: recombinant human A1 receptor expressed in CHO cells; [3H]-DPCPX 0.6 nM; Ki from IC50 by Cheng-Prussoff equation; read-out: hA1 Ki. The method, then: Human Adenosine A^1 Receptor
The gene encoding human adenosinie A1 receptor was recombinantly introduced and expressed in chinese hamster ovary (CHO) cells using the semliki forest virus expression system. Cells were harvested, washed twice by centrifugation, homogenized and again washed by centrifugation. The final washed membrane pellet was suspended in a Tris (50 mM) buffer containing 120 mM NaCl, 5 mM KCl, 2 mM CaCl2 and 10 mM MgCl2 (pH 7.4) (buffer A). The [^3H]-DPCPX (([propyl-3H]8-cyclopentyl-1,3-dipropyxanthine); 0.6 nM) binding assay was carried out in 96-well plates in the presence of 2.5 μg of membrane protein, 0.5 mg of Ysi-poly-1-lysine SPA beads and 0.1 U adenosine deaminase in a final volume of 200 μl of buffer A. Non-specific binding was defined using xanthine amine congener (XAC; 2 μM). Compounds were tested at 10 concentrations from 10 μM-0.3 nM. All assays were conducted in duplicate and repeated at least two times. Assay plates were incubated for 1 hour at room temperature before centrifugation and then bound ligand determined using a Packard Topcount scintillation counter. IC50 values were calculated using a non-linear curve fitting program and Ki values calculated using the Cheng-Prussoff equation.
(§1) In accordance with the invention, it has been shown that compounds of formula I have a high affinity toward the A2A receptor. In Table I below specific values of prepared compounds are described, Values of KiHA2A and KiHA1 are shown in Table I for compounds of formula 1. A low Ki value is indicative of a particular compound's high affinity toward a particular receptor and conversely a higher Ki value is indicative of a lower affinity for that compound toward a particular receptor. […] Generally speaking, compounds that have a higher HA1/HA2A ratio are able to give a substantially complete blockade of the HA2A receptor without substantially affecting the A1 receptor.

Experiment [2] has as its target T2, human adenosine A2a receptor (Homo sapiens, UniProt P29274).
T2 construct: expressed in transfected cells; host or cells: CHO cells, semliki forest virus expression system; membrane preparation
As to the kind of experiment: Human adenosine A2a receptor radioligand binding assay ([125I]-AB-MECA, CHO cell membranes). Particulars: for Selectivity A1/A2a: ratio obtained by dividing KiHA1 by KiHA2A; for Ki: recombinant human A2a receptor expressed in CHO cells, Ki from IC50 by Cheng-Prussoff equation, read-out: hA2a Ki. The method, then: Human Adenosine A2a Receptor
The gene encoding human adenosine A2a receptor was recombinantly introduced and expressed in chinese hamster ovary (CHO) cells using the semliki forest virus expression system. Cells were harvested, washed twice by centrifugation, homogenized and again washed by centrifugation. The final washed membrane pellet was suspended in a Tris (50 mM) buffer containing 120 mM NaCl, 5 mM KCl, 2 mM CaCl2 and 10 mM MgCl2 (pH 7.4) (buffer A). The [^125I]-AB-MECA ([N(6)-(4-amino-3-iodobenzyl)-5′-N-methylcarbamoyl-adenosine]; 0.05 nM) binding assay was carried out in 96-well a plates in the presence of 20 μg of membrane protein and 0.1 U adenosine deaminase in a final volume of […] of buffer A. Non-specific binding was defined using xanthine amine congener (XAC; 2 μM). Compounds were tested at 10 concentrations from 10 μM-0.3 nM. All assays were conducted in duplicate and repeated at least two times. Assay plates were incubated for 1 hour at room temperature before filtration through Whatman Unifilter GF/C 96-well filter plates (preincubated with 0.3% polyethyleneimine). Filters were washed 3 times with 0.3 ml of cold (4° C.) Tris (50 mM)—NaC […]
[…] 1 (120 mM) buffer (pH 7.4). Microscint 40 scintillation fluid (50 μl) was added to each well and the wells sealed. After gentle shaking for 20 min, plates were counted on a Packard Topcount scintillation counter. IC50 values were calculated using a non-linear curve fitting program and Ki values calculated using the Cheng-Prussoff equation.
as §1

T2 sequence (P29274 whole entry): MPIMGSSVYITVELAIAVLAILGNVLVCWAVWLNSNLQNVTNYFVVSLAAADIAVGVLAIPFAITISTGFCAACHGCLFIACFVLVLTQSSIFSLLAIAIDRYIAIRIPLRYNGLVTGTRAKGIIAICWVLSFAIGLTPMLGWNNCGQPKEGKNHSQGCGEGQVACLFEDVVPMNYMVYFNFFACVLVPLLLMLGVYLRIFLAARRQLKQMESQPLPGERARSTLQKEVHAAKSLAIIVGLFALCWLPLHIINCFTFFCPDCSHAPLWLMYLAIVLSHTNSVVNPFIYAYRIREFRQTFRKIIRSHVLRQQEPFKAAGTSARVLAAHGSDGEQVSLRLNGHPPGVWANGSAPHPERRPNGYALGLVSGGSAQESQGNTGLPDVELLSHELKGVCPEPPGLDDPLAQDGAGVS

In general, Ki refers to the equilibrium dissociation constant of an inhibitor or competing ligand from its target. As for `COc1ccc(-c2cccs2)n2nc(NC(=O)c3ccc(Br)cc3)nc12` [Example 2, 4-Bromo-N-(8-methoxy-5-thiophen-2-yl-[1,2,4]triazolo[1,5-a]pyridin-2-yl)-benzamide], in experiment [1], the Ki is 2.39 µM. Further, in experiment [2], the “Selectivity A1/A2a” value was found to be 37.6 and the inhibition constant (Ki) is 0.0636 µM.

As for `COc1ccc(-c2ccccc2)n2nc(NC(=O)c3cccc(F)c3)nc12` [Example 3, 3-Fluoro-N-(8-methoxy-5-phenyl-[1,2,4]triazolo[1,5-a]pyridin-2-yl)-benzamide], the Ki in experiment [1] stood at 2.03 µM; in experiment [2], 0.176 µM. In addition, the “Selectivity A1/A2a” value in experiment [2] turned out to be 11.6.

Consider `COc1ccc(-c2ccccc2)n2nc(NC(=O)c3ccc(F)cc3)nc12` [Example 4, 4-Fluoro-N-(8-methoxy-5-phenyl-[1,2,4]triazolo[1,5-a]pyridin-2-yl)-benzamide], for which the Ki in experiment [1] amounted to 2.24 µM. In experiment [2], the “Selectivity A1/A2a” value was 19.6 and the Ki turned out to be 0.114 µM.

Regarding `COc1ccc(-c2ccccc2)n2nc(NC(=O)c3ccccc3Cl)nc12` [Example 5, 2-Chloro-N-(8-methoxy-5-phenyl-[1,2,4]triazolo[1,5-a]pyridin-2-yl)-benzamide], the Ki in experiment [1] was 1.87 µM. Moreover, in experiment [2], the “Selectivity A1/A2a” value worked out at 7.3 and the Ki is 0.258 µM.

Take `COc1ccc(-c2ccccc2)n2nc(NC(=O)c3cccc(Cl)c3)nc12` [Example 6, 3-Chloro-N-(8-methoxy-5-phenyl-[1,2,4]triazolo[1,5-a]pyridin-2-yl)-benzamide]: the inhibition constant Ki in experiment [1] turned out to be 2.87 µM. Besides, in experiment [2], the “Selectivity A1/A2a” value came out at 15.8 and the inhibitory constant (Ki) amounted to 0.181 µM.

On to `COc1ccc(C(=O)Nc2nc3c(OC)ccc(-c4ccccc4)n3n2)cc1` [Example 7, 4-Methoxy-N-(8-methoxy-5-phenyl-[1,2,4]triazolo[1,5-a]pyridin-2-yl)-benzamide], for which the inhibition constant Ki in experiment [1] was found to be 4.71 µM. In addition, in experiment [2], the “Selectivity A1/A2a” value was found to be 20.8 and the Ki stood at 0.227 µM.

Turning to `COc1ccc(-c2ccccc2)n2nc(NC(=O)c3cccc(Br)c3)nc12` [Example 8, 3-Bromo-N-(8-methoxy-5-phenyl-[1,2,4]triazolo[1,5-a]pyridin-2-yl)-benzamide], in experiment [1], the Ki stood at 2.88 µM. Besides, in experiment [2], the “Selectivity A1/A2a” value turned out to be 21.1 and the inhibitory constant (Ki) was 0.136 µM.

In the case of `COc1ccc(-c2ccccc2)n2nc(NC(=O)c3ccc(Br)cc3)nc12` [Example 9, 4-Bromo-N-(8-methoxy-5-phenyl-[1,2,4]triazolo[1,5-a]pyridin-2-yl)-benzamide], the Ki in experiment [1] came out at 2.29 µM. Also, in experiment [2], the “Selectivity A1/A2a” value came out at 22.4 and the Ki worked out at 0.102 µM.

With `CCc1ccc(C(=O)Nc2nc3c(OC)ccc(-c4ccccc4)n3n2)cc1` [Example 10, 4-Ethyl-N-(8-methoxy-5-phenyl-[1,2,4]triazolo[1,5-a]pyridin-2-yl)-benzamide], the results for the Ki in experiment [1] and in experiment [2] were 2 µM and 0.173 µM, respectively. Besides, the “Selectivity A1/A2a” value in experiment [2] is 11.5.

As for `COc1cccc(C(=O)Nc2nc3c(OC)ccc(-c4ccccc4)n3n2)c1` [Example 11, 3-Methoxy-N-(8-methoxy-5-phenyl-[1,2,4]triazolo[1,5-a]pyridin-2-yl)-benzamide], in experiment [1], the Ki turned out to be 3.71 µM. Further, in experiment [2], the “Selectivity A1/A2a” value is 23.4 and the Ki was found to be 0.159 µM.

With `COc1ccc(-c2cccs2)n2nc(NC(=O)c3ccccc3)nc12` [Example 12, N-(8-Methoxy-5-thiophen-2-yl-[1,2,4]triazolo[1,5-a]pyridin-2-yl)-benzamide], the inhibitory constant (Ki) in experiment [1] stood at 2.15 µM. Further, in experiment [2], the “Selectivity A1/A2a” value amounted to 19.3 and the Ki was 0.112 µM.

In the case of `COc1ccc(-c2cccs2)n2nc(NC(=O)c3ccccc3Cl)nc12` [Example 13, 2-Chloro-N-(8-methoxy-5-thiophen-2-yl-[1,2,4]triazolo[1,5-a]pyridin-2-yl)-benzamide], the Ki in experiment [1] came out at 2.25 µM. Also, in experiment [2], the “Selectivity A1/A2a” value was determined as 9.8 and the Ki came out at 0.23 µM.

In the case of `COc1ccc(-c2cccs2)n2nc(NC(=O)c3cccc(Cl)c3)nc12` [Example 14, 3-Chloro-N-(8-methoxy-5-thiophen-2-yl-[1,2,4]triazolo[1,5-a]pyridin-2-yl)-benzamide], the inhibitory constant (Ki) in experiment [1] turned out to be 2.48 µM; in experiment [2], 0.142 µM. Further, the “Selectivity A1/A2a” value in experiment [2] is on record as 17.4.

In the case of `COc1ccc(-c2cccs2)n2nc(NC(=O)c3ccc(Cl)cc3)nc12` [Example 15, 4-Chloro-N-(8-methoxy-5-thiophen-2-yl-[1,2,4]triazolo[1,5-a]pyridin-2-yl)-benzamide], the inhibition constant (Ki) in experiment [1] came to 2.91 µM. Further, in experiment [2], the “Selectivity A1/A2a” value is on record as 25.6 and the inhibitory constant (Ki) is 0.114 µM.

On to `COc1ccc(C(=O)Nc2nc3c(OC)ccc(-c4cccs4)n3n2)cc1` [Example 16, 4-Methoxy-N-(8-methoxy-5-thiophen-2-yl-[1,2,4]triazolo[1,5-a]pyridin-2-yl)-benzamide], for which the Ki in experiment [1] turned out to be 3.38 µM. Further, in experiment [2], the “Selectivity A1/A2a” value came out at 14.2 and the Ki was 0.238 µM.

Take `COc1ccc(-c2cccs2)n2nc(NC(=O)c3ccccc3Br)nc12` [Example 17, 2-Bromo-N-(8-methoxy-5-thiophen-2-yl-[1,2,4]triazolo[1,5-a]pyridin-2-yl)-benzamide]: the Ki in experiment [1] turned out to be 2.49 µM. In experiment [2], the “Selectivity A1/A2a” value is reported as 12.0 and the Ki was 0.208 µM.

Take `CCc1ccc(C(=O)Nc2nc3c(OC)ccc(-c4cccs4)n3n2)cc1` [Example 18, 4-Ethyl-N-(8-methoxy-5-thiophen-2-yl-[1,2,4]triazolo[1,5-a]pyridin-2-yl)-benzamide]: the Ki in experiment [1] was 3.3 µM. In addition, in experiment [2], the “Selectivity A1/A2a” value is reported as 24.2 and the Ki came to 0.136 µM.

Regarding `COc1ccc(-c2ccc(Cl)cc2)n2nc(NC(=O)c3ccc(F)cc3)nc12` [Example 48, N-[5-(4-Chloro-phenyl)-8-methoxy-[1,2,4]triazolo[1,5-a]pyridin-2-yl]-4-fluoro-benzamide], the Ki in experiment [2] was found to be 0.624 µM.

In the case of `COc1ccc(-c2ccc(OC)c3nc(NC(=O)c4ccc(F)cc4)nn23)cc1` [Example 49, 4-Fluoro-N-[8-methoxy-5-(4-methoxy-phenyl)-[1,2,4]triazolo[1,5-a]pyridin-2-yl]-benzamide], in experiment [2], the Ki was 0.346 µM.

In the case of `COc1ccc(-c2ccc(SC)cc2)n2nc(NC(=O)c3ccc(F)cc3)nc12` [Example 50, 4-Fluoro-N-[8-methoxy-5-(4-methylsulfanyl-phenyl)-[1,2,4]triazolo[1,5-a]pyridin-2-yl]-benzamide], the Ki in experiment [2] is 0.855 µM.

As to `CCOC(=O)c1cccc(-c2ccc(OC)c3nc(NC(=O)c4ccc(F)cc4)nn23)c1` [Example 51, 3-[2-(4-Fluoro-benzoylamino)-8-methoxy-[1,2,4]triazolo[1,5-a]pyridin-5-yl]-benzoic acid ethyl ester], the Ki in experiment [2] was determined as 0.48 µM.
